“And” between values parts separate entries of the source, which are not always exact repeats. Equal values may be shown once.
Experiments:
[1] = Uptake and phosphorylation assay in PBMCs; format: in vitro ADME, human; conditions: PBMCs incubated with 0.21 nM MK-8527
Procedure: To determine the amount of MK-8527 phosphorylated forms produced after treatment of PBMCs, uptake and phosphorylation assays were performed. PBMCs were activated with 5 µg/mL PHA in RPMI 1640, 10% FBS, 100 units/mL penicillin, and 100 µg/mL streptomycin at 1.2 × 10^6 cells/mL. All incubations were in a humidified incubator at 37 °C and with 5% CO2. After 3–4 days in culture, media containing PHA were removed by centrifugation at 300g for 10 min. Cells were resuspended at 2 × 10^6 cells/mL in RPMI 1,640, 10% NHS, 100 units/mL penicillin, 100 µg/mL streptomycin, and 20 units/mL IL-2. A total of 7.5 × 10^6 to 2 × 10^7 cells were transferred to a miniature bioreactor tube. […]
The intracellular concentration of MK-8527-TP was determined by an LC–MS/MS assay. […] Quantification was performed by monitoring the transitions of m/z 548.9 to 169.1 for MK-8527-TP. […] The method’s lower limit of quantification was between 1 and 5 nM depending on the assay volumes of cell suspension. Analyte concentrations in cell samples across species were determined from the standard curves using linear regression with 1/×2 weighting.
Concentrations of intracellular phosphorylated forms were expressed in picomoles per 10^6 cells by using the molar concentration of each compound as determined by LC–MS/MS and the number of viable cells included in each 100-µL sample.

[2] = MK-8527-TP in PBMCs of rhesus monkeys after oral dosing; format: in vivo; conditions: oral MK-8527 50 mg/kg
Procedure: The intracellular concentration of MK-8527-TP was determined by an LC–MS/MS assay. LC–MS/MS analysis was performed on a Acquity UPLC system (Waters Corporation; Milford, MA, USA) interfaced to an API-5500 mass spectrometer using a TurboIonSpray source (Sciex, Framingham, MA, USA) in positive ionization mode. Separation of MK-8527-TP was achieved on a BioBasic AX column (2.1 × 100 mm, 5 µm; Thermo Fisher Scientific) at 45 °C using gradient elution with mobile phases consisting of 70% water to 30% acetonitrile containing 10 mM ammonium acetate (solvent A) and 70% water to 30% acetonitrile containing 20 mM ammonium acetate, 1.5% ammonium hydroxide (NH4OH) (v/v), and 10% isopropyl alcohol (IPA) (v/v) (solvent B) at a flow rate of 0.75 mL/min. The chromatography was run as follows: The column was equilibrated with 97% A, and after sample injection 97% A was maintained for 0.10 min before concentration was increased linearly to 100% B until 3.00 min, followed by a hold at 100% B until 3.50 min. The column was then washed by alternating linear ramps from 97% A to 100% B up to 4.10 min, then returned to the initial conditions at 4.30 min and kept for an additional 1.20 min. The total run time was 5.50 min. Quantification was performed by monitoring the transitions of m/z 548.9 to 169.1 for MK-8527-TP. The method was linear across a concentration range of 1–5,000 nM in cell samples across species. The method’s lower limit of quantification was between 1 and 5 nM depending on the assay volumes of cell suspension. Analyte concentrations in cell samples across species were determined from the standard curves using linear regression with 1/×2 weighting.
PBMCs were isolated from heparinized monkey blood using the following protocol. To begin, blood samples (approximately 12–18 mL) were diluted with an equal volume of calcium- and magnesium-free PBS at pH 7.4 and gently mixed. Separation of PBMCs from the diluted blood was achieved using 50 mL AccuSpin tubes loaded with Histopaque-1077 lymphocyte separation medium (both: Thermo Fisher Scientific). Samples were centrifuged at 800g for 15 min at room temperature. The resulting plasma/buffer supernatant was removed without disturbing the PBMC interface. Next, the PBMC interface was removed with a pipette, and the cells were washed by the addition of calcium- and magnesium-free PBS (pH 7.4) to a final volume of 15 mL. PBMCs were harvested by centrifugation at 250g for 20 min at room temperature. The supernatant was decanted with care taken not to disturb the PBMC pellet, and the wash step was repeated once (250 × g for 15 min). After the second wash, the cell pellet was resuspended in 7 mL of calcium- and magnesium-free PBS, and an aliquot was removed for cell counting. PBMCs were harvested from the remaining cell suspension by centrifugation at 250g for 15 min at room temperature. The supernatant was removed, and the cell pellet was resuspended in 0.1–0.3 mL of methanol and water at a 70:30 ratio. Cell suspensions were stored at […] prior to analysis.

HIV RT = target: T1, HIV RT (Human immunodeficiency virus type 1 group M subtype B, UniProt P04585); assay: HIV-RT primer extension assay (chain termination); format: biochemical; conditions: 1 µM each dNTP
T1 construct: HIV RT (final concentration, 1,200 nM)
Procedure: The reaction protocol was adapted from previous work. Primers and template used for this assay are described in Fig 8A.
All reagent stocks were in a base assay buffer consisting of 50 mM Tris pH 7.5 and 50 mM NaCl in nuclease-free water. […] Samples were then heated to 95 °C for 10 min prior to storage at −20 °C until being resolved by polyacrylamide gel electrophoresis with 7 M urea.

SMILES: C#C[C@]1(COP(=O)(O)OP(=O)(O)OP(=O)(O)O)O[C@@H](n2ccc3c(N)nc(Cl)nc32)C[C@@H]1O [MK-8527-TP]
- Intracellular MK-8527-TP level by LC–MS/MS [1]: below the limit of quantitation
- Arithmetic Mean Concentration in PBMCs ([2]; 2 hr): 11.11 µM
- Concentration in PBMCs, individual subjects ([2]; 2 hr): 18.77 µM and 6.47 µM and 11.31 µM
- Arithmetic Mean Concentration in PBMCs ([2]; 24 hr): 15.02 µM
- Concentration in PBMCs, individual subjects ([2]; 24 hr): 15.33 µM and 20.00 µM and 11.04 µM
- Arithmetic Mean Concentration in PBMCs ([2]; 72 hr): 2.78 µM
- Concentration in PBMCs, individual subjects ([2]; 72 hr): 5.67 µM and 2.28 µM and 1.67 µM
- Arithmetic Mean Concentration in PBMCs ([2]; 168 hr): 0.66 µM
- Concentration in PBMCs, individual subjects ([2]; 168 hr): 1.83 µM and 0.38 µM and 0.40 µM
- Chain termination mechanism (ICT/DCT) (HIV RT): both ICT and DCT occurred
